Values of other authors in patent publication US20070224637A1, “Oxidative protection of lipid layer biosensors” (priority 2006, published 2007).

| Compound | Solubility In oil | Solubility In alcohol | Solubility In water |
| --- | --- | --- | --- |
| Tocopherols | Yes | – | – |
| COc1ccc(O)c(C(C)(C)C)c1 [Butylated hydroxyanisole] | Yes | Yes | No |
| CC(=O)N[C@@H](CS)C(=O)O [Acetylcysteine] | No | Yes | Yes |
| Cc1c(O)cc2c(c1C)O[C@](C)(CCC[C@H](C)CCC[C@H](C)CCCC(C)C)CC2 [γ-tocopherol (syn), γ-tocopherol] | Yes | Yes | No |
| Oc1ccc(O)cc1 [Hydroquinone] | Yes | Yes | Yes |
| NC(N)=S [Thiourea] | No | Yes | Yes |
| OC[C@@H](O)[C@@H](O)[C@H](O)[C@@H](O)CS [Thiosorbitol] | Yes | Yes | Yes |
| CCOc1ccc2c(c1)C(C)=CC(C)(C)N2 [Ethoxyquin] | Yes | – | – |
| O=C(OC[C@H]1O[C@@H](OC(=O)c2cc(O)c(O)c(OC(=O)c3cc(O)c(O)c(O)c3)c2)[C@H](OC(=O)c2cc(O)c(O)c(OC(=O)c3cc(O)c(O)c(O)c3)c2)[C@@H](OC(=O)c2cc(O)c(O)c(OC(=O)c3cc(O)c(O)c(O)c3)c2)[C@@H]1OC(=O)c1cc(O)c(O)c(OC(=O)c2cc(O)c(O)c(O)c2)c1)c1cc(O)c(O)c(OC(=O)c2cc(O)c(O)c(O)c2)c1 [Tannic acid] | – | – | Yes |
| Cc1cc(C(C)(C)C)c(O)c(C(C)(C)C)c1 [Butylated hydroxytoluene] | Yes | Yes | No |
| O=S([O-])O.O=S([O-])O.[Ca+2] [Calcium bisulfite] | – | – | Yes |
| D-tocopherol [D-tocopherol (syn)] | Yes | Yes | No |
| OCC(O)CS (stereo not shown) [Monothioglycerol] | – | Yes | Yes |
| CCCCCCCCOC(=O)c1cc(O)c(O)c(O)c1 [Octyl gallate] | Yes | Yes | No |
| CCCCCCCCCCCCCCCC(=O)OC[C@H](O)[C@H]1OC(=O)C(O)=C1O [Ascorbyl palmitate] | Yes | Yes | Yes |
| CCCCCCCCCCCCOC(=O)c1cc(O)c(O)c(O)c1 [Dodecyl gallate] | Yes | Yes | No |
| CC(C)(C)c1cc(CO)cc(C(C)(C)C)c1O [4-Hydroxymethyl-2,6-di-tert-butylphenol] | Yes | Yes | Yes |

| Compound | Solubility In oil | Solubility In alcohol | Solubility In water |
| --- | --- | --- | --- |
| CCCOC(=O)c1cc(O)c(O)c(O)c1 [Propyl gallate] | Slightly | Yes | Slightly |
| Cc1cc2c(C(C)C)c(O)c(O)c(C=O)c2c(O)c1-c1c(C)cc2c(C(C)C)c(O)c(O)c(C=O)c2c1O [Gossypol] | Yes | Yes | No |
| O[C@H](CS)[C@H](O)CS (racemic) [Dithiothreitol] | No | Yes | Yes |
| O=[PH2]O [Hypophosphorus acid] | – | – | Yes |
| O=S([O-])[O-].[Na+].[Na+] [Sodium sulfite] | – | No | Yes |
| CC(Cc1ccc(O)c(O)c1)C(C)Cc1ccc(O)c(O)c1 (stereo not shown) [Nordihydroguaiaretic acid] | Yes | Yes | No |
| N[C@@H](CCC(=O)N[C@@H](CS)C(=O)NCC(=O)O)C(=O)O [Glutathione] | – | – | Yes |
| O=C(O)c1cc(O)c(O)c(O)c1 [Gallic acid] | Yes | Yes | Yes |
| O=S([O-])O.[Na+] [Sodium bisulfite] | No | – | Yes |
| N[C@@H](CS)C(=O)O [Cysteine] | No | Yes | Yes |
| O=S=O [Sulfur dioxide] | Yes | Yes | Yes |
| O=S([O-])S(=O)(=O)[O-].[Na+].[Na+] [Sodium metabisulfite] | – | Slightly | Yes |
| O=S([O-])[O-].[Ca+2] [Calcium sulfite] | – | Yes | Yes |
| CCOC(=O)c1cc(O)c(O)c(O)c1 [Ethyl gallate] | No | Yes | Slightly |
| Cc1c(C)c2c(c(C)c1O)CC[C@@](C)(CCC[C@H](C)CCC[C@H](C)CCCC(C)C)O2 [d-α-tocopherol (syn), d-α-tocopherol] | Yes | Yes | No |
| O=S([O-])S(=O)(=O)[O-].[K+].[K+] [Potassium metabisulfite] | No | No | Yes |
